The structures appear in SMILES notation. ≈ marks a conversion by molar mass, not a printed value.

We go through 51 compounds from PubChem BioAssay AID1996.

The conditions of this data set: buffer; pH 7.4; 200.0 µM.
Take `O=C(Cc1cccc2ccccc12)Nc1c(F)cccc1F`: the kinetic solubility is 1.2 µg/mL (≈ 4.04 µM).

Consider `CC(C)(C)S(=O)(=O)/C(C#N)=C/Nc1ccccn1`, for which the solubility (kinetic) was greater than 39.8 µg/mL.

As for `CC(=O)c1ccc(N2CCCCC2)c(F)c1`, the kinetic solubility worked out at 12.1 µg/mL (≈ 54.7 µM).

In the case of `Cc1ccc(S(C)(=O)=O)cc1C(=O)NC(C)C1CC2CCC1C2` (stereo unspecified), the kinetic solubility turned out to be 47.8 µg/mL (≈ 142 µM).

`Cc1cc(C)cc(NC(=O)CN2CCN(c3ccccc3)CC2)c1` displayed a kinetic solubility of 1.8 µg/mL (≈ 5.57 µM).

With `CN(Cc1ccccc1)C(=O)c1ccc2c(c1)S(=O)(=O)N=C1CCCCCN12`, the solubility (kinetic) was greater than 59.6 µg/mL.

In turn, `COC(=O)c1ccc(OC(=O)c2cnccn2)cc1` showed a kinetic solubility greater than 38.7 µg/mL.

As to `O=[N+]([O-])c1ccc(/C=C/c2ccc3cccc(O)c3n2)cc1`, the kinetic solubility was less than 0.3 µg/mL.

Compound `Cc1ccccc1N1CCN(Cc2ccc(Br)o2)CC1` came in with a solubility (kinetic) of 4.3 µg/mL (≈ 12.8 µM).

`Cc1cc(NCc2cccnc2)no1` gave a solubility (kinetic) of 28 µg/mL (≈ 148 µM).

`O=c1[nH]c(=S)n(C2CC2)c(O)c1C=Nc1ccc2c(c1)OCO2` yielded a kinetic solubility of 1.3 µg/mL (≈ 3.92 µM).

On to `COc1ccc(S(=O)(=O)Nc2cccnc2)cc1`, for which the solubility (kinetic) was greater than 39.6 µg/mL.

`O=C(CCCNC(=O)c1ccc(Cl)cc1)Nc1ccccc1F` returned a solubility (kinetic) of 33.5 µg/mL (≈ 100 µM).

Take `COC(=O)C1CSC(C)(C)C(=O)N1` (stereo unspecified): the solubility (kinetic) was greater than 30.5 µg/mL.

Take `CCOC(=O)c1ccccc1NC(=O)C1CSC2(C)CCC(=O)N12` (stereo unspecified): the solubility (kinetic) was greater than 52.3 µg/mL.

`CC1CCC(NC(=O)COC(=O)c2ccco2)CC1` (stereo unspecified) gave a kinetic solubility greater than 39.8 µg/mL.

Compound `O=Cc1ccc(OCCCOc2cccc3cccnc23)cc1` yielded a solubility (kinetic) of 37.7 µg/mL (≈ 123 µM).

As to `O=C1NC(=S)NC(=O)C1C1CCCCC1`, the solubility (kinetic) worked out at 30.1 µg/mL (≈ 133 µM).

For the compound `COc1ccc(CCNC(=O)/C=C/c2ccco2)cc1OC`, the solubility (kinetic) was greater than 45.2 µg/mL.

Regarding `CC(C)(C)OC(=O)N1CCC(CNC(=O)c2ccccc2)CC1`, the solubility (kinetic) is greater than 47.8 µg/mL.

Regarding `O=C(COC(=O)c1cccnc1Cl)NC(=O)c1ccc(OC(F)F)cc1`, the kinetic solubility worked out at 10.1 µg/mL (≈ 26.3 µM).

In the case of `Cc1cnc(C(=O)OCC(=O)Nc2cccc(C)c2C)cn1`, the solubility (kinetic) was greater than 44.9 µg/mL.

As for `CC1Cc2ccccc2N1NC(=O)c1ccc(Cl)c(S(N)(=O)=O)c1` (stereo unspecified), the solubility (kinetic) is greater than 54.9 µg/mL.

As to `O=C(O)c1cc(-n2cccc2)ccc1N1CCOCC1`, the kinetic solubility is greater than 40.8 µg/mL.

In turn, `CCN(CC)C(=O)CSc1nc(C)cc(C)c1C#N` returned a kinetic solubility of 15.1 µg/mL (≈ 54.4 µM).

For `O=C1NC(=S)N/C1=C/c1ccc2c(c1)OCO2`, the kinetic solubility was found to be 1.5 µg/mL (≈ 6.04 µM).

Regarding `CSc1nc(Nc2ccc(Cl)cc2)c(C#N)c(=O)[nH]1`, the kinetic solubility worked out at 7.8 µg/mL (≈ 26.6 µM).

In turn, `CCOc1ncccc1C(=O)N(CCC(C)C)c1c(N)n(Cc2ccccc2)c(=O)[nH]c1=O` registered a kinetic solubility of 3.3 µg/mL (≈ 7.31 µM).

The compound `O=C(O)c1c(N2CCCCC2)ccc([N+](=O)[O-])c1N1CCCCC1` yielded a kinetic solubility of 46.4 µg/mL (≈ 139 µM).

As to `O=C(c1ccccc1)c1ccccc1N1C(=O)C=CC1=O`, the kinetic solubility is greater than 41.6 µg/mL.

In turn, `CCN(CC)c1ccc(CNc2nc3ccccc3n2CC)cc1` returned a solubility (kinetic) of 10.9 µg/mL (≈ 33.8 µM).

`Cc1cccc(Nc2nc(C)nc3c2oc2ccccc23)c1.Cl` displayed a kinetic solubility of 1.1 µg/mL.

Take `Cc1cccc(N=C2CSC(=O)N2)c1`: the kinetic solubility is greater than 30.9 µg/mL.

In turn, `CCCCn1c(NCc2ccncc2)nc2ccccc21` returned a kinetic solubility of 39.4 µg/mL (≈ 141 µM).

`CCN(CC)c1ccc(C=Nc2cccc(S(=O)(=O)N3CCOCC3)c2)c(O)c1` showed a kinetic solubility of 8.3 µg/mL (≈ 19.9 µM).

`COc1ccccc1-c1nc(COc2ccc(Cl)cc2Cl)no1`: the kinetic solubility was less than 0.4 µg/mL.

Compound `C=CCc1ccccc1OCC(O)CNC1CCCC1.Cl` (stereo unspecified) came in with a solubility (kinetic) greater than 46.8 µg/mL.

In turn, `COc1cccc(NC(=O)c2cc(=O)c3ccccc3o2)c1` displayed a kinetic solubility of 1.9 µg/mL (≈ 6.43 µM).

In turn, `O=S(=O)(c1cnc[nH]1)N1CCN(c2ccc(F)cc2)CC1` yielded a kinetic solubility of 5.8 µg/mL (≈ 18.7 µM).

`CCOC(=O)c1c(NC(=O)c2ccccc2C(=O)O)sc2c1CCCC2` registered a kinetic solubility of 41.5 µg/mL (≈ 111 µM).

In the case of `O=C(NCc1cccnc1)Nc1ccc(Br)cc1Cl`, the solubility (kinetic) was 19.2 µg/mL (≈ 56.4 µM).

`CNC(=O)N1CCC(C(=O)c2c(C)c(C)c(C)c(C)c2C)CC1`: the kinetic solubility was 36.5 µg/mL (≈ 115 µM).

For `CCOC(=O)/C(C#N)=C1\CC2CCC1(C)C2(C)C` (stereo unspecified), the solubility (kinetic) came to 1.7 µg/mL (≈ 6.87 µM).

In turn, `CCOc1ccc(NC(=O)c2ccc(CN3CCc4ccccc4C3)cc2)cc1` gave a solubility (kinetic) of less than 0.4 µg/mL.

In turn, `COc1ccc(S(=O)(=O)N(C)CC(=O)N2CCCCCC2)cc1` showed a solubility (kinetic) greater than 51.1 µg/mL.

`CCN(C(=O)CSc1nnc(-c2ccc(F)cc2)n1C)C1CCS(=O)(=O)C1` (stereo unspecified) had a kinetic solubility greater than 61.9 µg/mL.

For `COc1cccc(NC(=S)N2CCN(C)CC2)c1`, the solubility (kinetic) was greater than 39.8 µg/mL.

With `Cc1ccc(C(=O)CSc2nc(N)cc(=O)[nH]2)cc1C`, the solubility (kinetic) turned out to be 12.8 µg/mL (≈ 44.2 µM).

`O=C(c1ccc2c(c1)OCO2)C1CCCN(C(=O)C2CCOCC2)C1` (stereo unspecified) showed a kinetic solubility greater than 51.8 µg/mL.

Turning to `O=C(Cn1cc(C(F)(F)F)ccc1=O)Nc1ccc2c(c1)OCCO2`, the solubility (kinetic) was determined as 25.2 µg/mL (≈ 71.1 µM).

Compound `NNC(=O)c1ccc(COCC(F)(F)C(F)F)cc1` showed a solubility (kinetic) greater than 42 µg/mL.
